Where a name gives a salt, the structure may show the parent alone. Read-outs that look alike come from different tables or passages of the source. Marks after values point to notes of the source that are not given here.
Columns and labels:
[1] = for Qualitative Tmax (blood collection with greatest plasma level): blood every 6h, np = no peak; for Plasma AUC: plasma 0–48h, trapezoidal; for Cmax / AUC / Tmax: plasma
[2] = for Qualitative Tmax (urine collection with greatest excretion): 12h urine collections, np = no peak; for Cmax (nmol excreted) / Tmax: urine; for Cmax (nmol excreted): mean ± SD; for Tmax: female, Sprague Dawley, rat, po
[3] = rat, in vivo, 350 mg/kg
[4] = High dose (1000 mg/kg bw), mean ± SD
[5] = Medium dose (350 mg/kg bw), mean ± SD
[6] = Low dose (75 mg/kg bw), mean ± SD
[7] = female, Sprague Dawley, rat, po, 350 mg/kg
[8] = female, Sprague Dawley, rat, po, 1000 mg/kg

Compound	Qualitative Tmax (blood collection with greatest plasma level) ([1]; High dose (1000 mg/kg bw)) [h]	Plasma AUC [1, 4]	Cmax [1, 4] [nM]	Qualitative Tmax (blood collection with greatest plasma level) ([1]; Medium dose (350 mg/kg bw)) [h]	Plasma AUC [1, 5]	Cmax [1, 5] [nM]	Qualitative Tmax (urine collection with greatest excretion) ([2]; High dose (1000 mg/kg bw)) [h]	Cmax (nmol excreted) ([2]; High dose (1000 mg/kg bw))	Qualitative Tmax (urine collection with greatest excretion) ([2]; Low dose (75 mg/kg bw))	Cmax (nmol excreted) ([2]; Low dose (75 mg/kg bw))	Qualitative Tmax (urine collection with greatest excretion) ([2]; Medium dose (350 mg/kg bw)) [h]	Cmax (nmol excreted) ([2]; Medium dose (350 mg/kg bw))	Qualitative Tmax (blood collection with greatest plasma level) ([1]; Low dose (75 mg/kg bw))	Plasma AUC [1, 6]	Cmax [1, 6]	other results
O=C(O)CCc1cccc(O)c1 [3-OH-PPA, 3-hydroxyphenylpropionic acid]	12	8.00 ± 2.22 ^x uM*h	507 ± 107	12	2.46 ± 0.95 ^w uM*h	161 ± 92	12 to 24	275 ± 34	0 to 12 h	25.4 ± 6.9 nmol excreted	0 to 12	177 ± 24				
COc1cc(/C=C/C(=O)O)ccc1OS(=O)(=O)O [Ferulic acid sulfate]	6	9.12 ± 2.89 ^x uM*h	825 ± 317	6	6.33 ± 3.04 ^x uM*h	262 ± 169	0 to 12	18.7 ± 14.9	np	np	0 to 12	7.41 ± 3.52	np	6.16 ± 1.50 ^x uM*h	np	
O=C(O)CNC(=O)c1ccccc1 [Hippuric acid, hippuric acid]								598 ± 146	np	np		700 ± 78	np		np	AUC ([1]; female, Sprague Dawley, rat, po, 75 mg/kg): 25.8 ± 3.08 µM·h; AUC [1, 7]: 47.7 ± 5.13 µM·h; Cmax [1, 7]: 1540 ± 510 nM; Tmax [1, 7]: 12 h; AUC [1, 8]: 74.3 ± 7.54 µM·h; Cmax [1, 8]: 2060 ± 806 nM; Tmax [1, 8]: 24 to 36 h; Time of maximal urinary excretion after dosing ([2]; as stated in text/figure legend, doses not separated): 12 to 24 h; Tmax ([2]; 350 mg/kg): 12 to 24 h; Tmax ([2]; 1000 mg/kg): 12 to 24 h; Amount excreted in urine, medium vs high dose ([2]; medium (350) vs high (1000 mg/kg bw) dose): no difference
COc1ccc(-c2oc3cc(O)cc(O)c3c(=O)c2O)cc1O [4-OMe-quercetin, 4-methoxyquercetin]																Qualitative Tmax (urine collection with greatest excretion) [3]: 0 to 12 h
Caffeic acid glucuronide	6	0.92 ± 0.20 ^y uM*h	84 ± 20	6	0.55 ± 0.11 ^x uM*h	21 ± 8	0 to 12	379 ± 134	np	np	0 to 12	261 ± 50	np	0.36 ± 0.06 ^w uM*h	np	
